From patent US20240269170A1, “Treatment of Inflammatory Conditions or Diseases” (Queen Mary University of London, priority 2021, published 2024)

System: mononuclear phagocytes
Assay: Phosphoproteomic analysis of GM-CSF differentiated human monocytes incubated with MCTR3 vs vehicle
Assay type: cell-based
Description: FIG. 5: MCTR3 reprograms the arthritic monocyte-derive macrophage transcriptome. A-B) Arthritis was induced and prolonged in C57BL/6 mice by administering 100 μL K/B×N serum i.p. on day 0, 2 and 9. Mice were treated on day 12 i.v. with 2×10^6 monocytes isolated from arthritic mice and incubated either with vehicle (PBS+0.1% DMSO) or 10 μM RG108, a DNMT inhibitor, for 15 min and then with a vehicle (PBS+0.1% EtOH) or 1 nM MCTR3 for 90 min (37° C.). Disease course was monitored daily by assessing A) clinical scores and B) oedema. Results are mean±SEM and expressed as percent change from day of treatment. n=10 mice per group. Statistical differences were evaluated using Two-way ANOVA. (C-E) K/B×N serum (100 μL, i.p.) was administered to mice on days 0, 2 and 9 to induce and prolong inflammatory arthritis. On day 12, mice were treated i.v. with 2×10^6 monocytes isolated from arthritic mice that were previously incubated with either vehicle (PBS+0.1% EtOH) or 1 nM MCTR3 for 90 min. Cells were isolated from paw joints on day 22, sorted for CD45^+ cells and single cell RNA sequencing was performed. […] Results are from n=4 mice per group. (F-G) Monocytes were isolated from human healthy volunteers, these cells were then incubated with GM-CSF (7 days, 37° C.) then with either Vehicle or MCTR3 (1 nM, 37° C.). Cells were lysed and the phosphoproteome determined using mass spectrometry. (F) GO Biological pathway analysis and (G) KEGG pathway analysis for proteins found to be differentially phosphorylated in cells incubated with MCTR3 when compared to those incubated with vehicle. Results are representative of cells from n=3 healthy volunteers per group
To further explore the mechanisms regulated by MCTR3 to reprogram mononuclear phagocytes we next evaluated the signaling pathways activated by MCTR3 using a phosphoproteomic approach. […] This regulation was also observed when using the Kyoto Encyclopaedia of Genes and Genomes pathway database that highlighted an enrichment of spliceosome linked proteins as well as proteins involved in mRNA surveillance by MCTR3. (FIG. 5G and Table 7). […] These findings indicate that MCTR3 promotes the reprograming of mononuclear phagocytes by both regulating epigenetic programs and protein translation to facilitate the termination of inflammation and joint protection. They also support the hypothesis that MCTR3-reprogrammed monocytes recruited into arthritic joints exert their activities via the upregulation of tissue protective pathways. […]
For evaluation of signalling pathways activated by MCTR3, monocytes were isolated from peripheral blood of healthy volunteers, incubated with GM-CSF (20 ng/ml, in RPMI containing 10% human serum) for 7 days and then incubated with MCTR3 (1 nM, in DPBS^+/+).
Phosphoproteomics experiments were performed using mass spectrometry. In brief, cells were lysed in 8M urea buffer and supplemented with phosphatase inhibitors (10 mM Na3VO4, 100 mM B-glycerol phosphate and 25 mM Na2H2P2O7 (Sigma)). Proteins were digested into peptides using trypsin. Phosphopeptides were enriched from total peptides by TiO2 chromatography. Dried phosphopeptides were dissolved in 0.1% TFA and analysed by nanoflow ultimate 3000 RSL nano instrument was coupled on-line to a Q Exactive plus mass spectrometer (Thermo Fisher Scientific). Gradient elution was from 3% to 35% buffer B in 120 min at a flow rate 300 nL/min with buffer A being used to balance the mobile phase (buffer A was 0.1% formic acid in water and B was 0.1% formic acid in acetonitrile). The spray voltage was 1.95 kV and the capillary temperature was set to 255° C. The Q-Exactive plus was operated in data dependent mode with one survey MS scan followed by 15 MS/MS scans. The full scans were acquired in the mass analyser at 375-1500m/z with the resolution of 70 000, and the MS/MS scans were obtained with a resolution of 17 500. […]

[1] = KEGG Pathway, differentially phosphorylated proteins, 1 nM MCTR3 vs vehicle
[2] = Reactome Gene Sets, differentially phosphorylated proteins, 1 nM MCTR3 vs vehicle

CC/C=C\C/C=C\C[C@H](O)[C@@H](/C=C/C=C/C=C\C/C=C\CCC(=O)O)SC[C@H](N)C(=O)O [MCTR3, 13R-cysteinyl, 14S-hydroxy-4Z, 7Z, 9E, 11E, 13R, 14S, 16Z, 19Z-docosahexaenoic acid]
phosphorylation status of SETD2, Histone deacetylase 1 and Histone deacetylase 2 (1 nM MCTR3): regulated
proteins involved in post-transcriptional regulation and protein translation (differential phosphorylation, GO analysis) (1 nM MCTR3): marked regulation
Endocytosis (ko04144) enrichment LogP [1]: −3.117
Fc gamma R-mediated phagocytosis (ko04666) enrichment LogP [1]: −2.545
Glycolysis, core module involving three-carbon compounds (M00002) enrichment LogP [1]: −4.6043
Guanine ribonucleotide biosynthesis IMP => GDP, GTP (M00050) enrichment LogP [1]: −3.0343
Herpes simplex infection (ko05168) enrichment LogP [1]: −2.0881
Neurotrophin signaling pathway (ko04722) enrichment LogP [1]: −2.6025
Notch signaling pathway (ko04330) enrichment LogP [1]: −4.0393
Spliceosome (hsa03040) enrichment LogP [1]: −7.662
Transcriptional misregulation in cancer (ko05202) enrichment LogP [1]: −2.704
mRNA surveillance pathway (ko03015) enrichment LogP [1]: −3.284
parathyroid hormone synthesis, secretion and action (hsa04928) enrichment LogP [1]: −2.088
Apoptotic execution phase (R-HSA-75153) enrichment LogP [2]: −3.842
COPII-mediated vesicle transport (R-HSA-204005) enrichment LogP [2]: −2.4
Diseases of signal transduction by growth factor receptors and second messengers (R-HSA-5663202) enrichment LogP [2]: −4.434
Estrogen-dependent gene expression (R-HSA-9018519) enrichment LogP [2]: −2.633
Formation of RNA Pol II elongation complex (R-HSA-112382) enrichment LogP [2]: −4.381
Initiation of Nuclear Envelope (NE) Reformation (R-HSA-2995383) enrichment LogP [2]: −3.748
Interferon gamma signaling (R-HSA-877300) enrichment LogP [2]: −2.545
Nervous system development (R-HSA-9675108) enrichment LogP [2]: −3.151
Neutrophil degranulation (R-HSA-6798695) enrichment LogP [2]: −2.465
Prolonged ERK activation events (R-HSA-169893) enrichment LogP [2]: −2.935
RHO GTPase Effectors (R-HSA-195258) enrichment LogP [2]: −3.726
Regulation of MECP2 expression and activity (R-HSA-9022692) enrichment LogP [2]: −6.229
SUMO E3 ligases SUMOylate target proteins (R-HSA-3108232) enrichment LogP [2]: −6.009
Signaling by NTRKs (R-HSA-166520) enrichment LogP [2]: −5.116
TRAF3-dependent IRF activation pathway (R-HSA-918233) enrichment LogP [2]: −2.935
Transcriptional Regulation by TP53 (R-HSA-3700989) enrichment LogP [2]: −7.191
Vesicle-mediated transport (R-HSA-5653656) enrichment LogP [2]: −6.611
p75 NTR receptor-mediated signalling (R-HSA-193704) enrichment LogP [2]: −6.512
